Measured values reported in ChEMBL document CHEMBL1132127, “Thrombin inhibitors based on [5,5] trans-fused indane lactams” (Bioorg Med Chem Lett, 1999).

Tests used:
Coagulation factor X = Coagulation factor X (Homo sapiens, UniProt P00742)
Description: Inhibition of activated Coagulation factor X

Prothrombin = Prothrombin (Homo sapiens, UniProt P00734)
Serine protease 1 = Serine protease 1 (Homo sapiens, UniProt P07477)
[1] = Half life time in human plasma; format: ADME, cell-free

Chain of Serine protease 1 (P07477 whole entry): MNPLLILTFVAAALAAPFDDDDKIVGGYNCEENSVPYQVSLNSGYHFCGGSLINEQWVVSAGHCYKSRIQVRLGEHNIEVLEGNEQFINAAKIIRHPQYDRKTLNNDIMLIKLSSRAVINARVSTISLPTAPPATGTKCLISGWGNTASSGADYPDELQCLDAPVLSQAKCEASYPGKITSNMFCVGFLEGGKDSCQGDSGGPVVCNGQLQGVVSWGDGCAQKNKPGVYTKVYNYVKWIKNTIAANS
Chain of Coagulation factor X (P00742 41-179 limits assumed): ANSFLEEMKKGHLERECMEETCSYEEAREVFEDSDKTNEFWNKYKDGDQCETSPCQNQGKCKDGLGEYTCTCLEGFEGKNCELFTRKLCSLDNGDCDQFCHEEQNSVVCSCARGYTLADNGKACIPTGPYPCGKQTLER
Chain of Coagulation factor X (P00742 235-488 limits assumed): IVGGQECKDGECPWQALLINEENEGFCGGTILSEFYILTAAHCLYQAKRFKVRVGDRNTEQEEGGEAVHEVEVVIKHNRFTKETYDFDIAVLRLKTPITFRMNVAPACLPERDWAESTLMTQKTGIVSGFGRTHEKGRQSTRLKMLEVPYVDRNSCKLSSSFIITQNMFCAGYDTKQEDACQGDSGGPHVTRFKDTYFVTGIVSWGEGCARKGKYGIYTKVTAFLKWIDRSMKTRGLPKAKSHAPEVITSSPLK

N=C(N)CCCC[C@H]1C(=O)N(CCCCCc2ccccc2)[C@H]2Cc3ccccc3[C@H]12
IC50 (Coagulation factor X): > 100 µM
IC50 (Prothrombin): 13 µM
IC50 (Serine protease 1): 9.7 µM

CCN(CC)C(=O)c1cccc(-c2ccc3c(c2)[C@@H]2[C@@H](CCCCC(=N)N)C(=O)N(C(=O)OCCCc4ccccc4)[C@H]2C3)c1
IC50 (Coagulation factor X): 3.7 µM
IC50 (Prothrombin): 0.13 µM
IC50 (Serine protease 1): 2.3 µM

CCN(CC)C(=O)c1cccc(-c2ccc3c(c2)C[C@H]2[C@H]3[C@@H](CCCCC(=N)N)C(=O)N2C(=O)OC)c1
IC50 (Coagulation factor X): 0.12 µM
IC50 (Prothrombin): 0.016 µM
half-life [1]: 24 h

CC(=O)O[C@@H]1CC[C@]2(C)C3CC[C@@]4(C)[C@H]5[C@@H](C[C@]4(C)C3=CCC2[C@]1(C)C(=O)O)OC(=O)[C@@H]5CC(=O)C=C(C)C (stereo partly drawn)
IC50 (Prothrombin): 4 µM

CCN(CC)C(=O)c1cccc(-c2ccc3c(c2)[C@@H]2[C@@H](CCCCC(=N)N)C(=O)N(COC(C)=O)[C@H]2C3)c1
IC50 (Coagulation factor X): 14 µM
IC50 (Prothrombin): 12 µM
IC50 (Serine protease 1): 36 µM

N=C(N)CCCC[C@H]1C(=O)N[C@H]2Cc3ccccc3[C@@H]21
IC50 (Coagulation factor X): > 200 µM
IC50 (Prothrombin): > 200 µM
half-life [1]: > 24 h
IC50 (Serine protease 1): > 200 µM

CCN(CC)C(=O)c1cccc(-c2ccc3c(c2)[C@@H]2[C@@H](CCCCC(=N)N)C(=O)N(C(=O)OC)[C@H]2C3)c1
IC50 (Coagulation factor X): 2.2 µM
IC50 (Prothrombin): 0.05 µM
half-life [1]: 17 h
IC50 (Serine protease 1): 2.2 µM

CCN(CC)C(=O)c1cccc(-c2ccc3c(c2)C[C@H]2[C@H]3[C@@H](CCCCC(=N)N)C(=O)N2C(=O)OCCCc2ccccc2)c1
IC50 (Coagulation factor X): 3.6 µM
IC50 (Prothrombin): 0.66 µM
IC50 (Serine protease 1): 0.62 µM

CCC(=O)N1C(=O)[C@H](CCCCC(=N)N)[C@H]2c3cc(-c4cccc(C(=O)N(CC)CC)c4)ccc3C[C@@H]21
IC50 (Coagulation factor X): 9.9 µM
IC50 (Prothrombin): 0.38 µM
IC50 (Serine protease 1): 8.3 µM

CCN(CC)C(=O)c1cccc(-c2ccc3c(c2)[C@@H]2[C@@H](CCCCC(=N)N)C(=O)N(S(=O)(=O)c4ccccc4)[C@H]2C3)c1
IC50 (Coagulation factor X): 0.074 µM
IC50 (Prothrombin): 0.016 µM
IC50 (Serine protease 1): 0.066 µM

CCN(CC)C(=O)c1cccc(-c2ccc3c(c2)[C@@H]2[C@@H](CCCCC(=N)N)C(=O)N(CCCCCc4ccccc4)[C@H]2C3)c1
IC50 (Coagulation factor X): > 50 µM
IC50 (Prothrombin): 5 µM
IC50 (Serine protease 1): > 50 µM

CCOP(=O)(OCC)N1C(=O)[C@H](CCCCC(=N)N)[C@H]2c3ccc(-c4cccc(C(=O)N(CC)CC)c4)cc3C[C@@H]21
IC50 (Coagulation factor X): 20 µM
IC50 (Prothrombin): 3.2 µM
IC50 (Serine protease 1): 1.7 µM

CCN(CC)C(=O)c1cccc(-c2ccc3c(c2)C[C@H]2[C@H]3[C@@H](CCCCC(=N)N)C(=O)N2CCCCCc2ccccc2)c1
IC50 (Coagulation factor X): 26 µM
IC50 (Prothrombin): 5 µM
IC50 (Serine protease 1): 8.4 µM

CCN(CC)C(=O)c1cccc(-c2ccc3c(c2)[C@@H]2[C@@H](CCCCC(=N)N)C(=O)N(C(=O)N(C)C)[C@H]2C3)c1
IC50 (Coagulation factor X): > 20 µM
IC50 (Prothrombin): 11 µM
IC50 (Serine protease 1): > 20 µM

CCNC(=O)N1C(=O)[C@H](CCCCC(=N)N)[C@H]2c3cc(-c4cccc(C(=O)N(CC)CC)c4)ccc3C[C@@H]21
IC50 (Coagulation factor X): > 100 µM
IC50 (Prothrombin): 3 µM
IC50 (Serine protease 1): > 100 µM

COC(=O)CN1C(=O)[C@H](CCCCC(=N)N)[C@H]2c3ccccc3C[C@@H]21
IC50 (Coagulation factor X): > 200 µM
IC50 (Prothrombin): 43 µM
IC50 (Serine protease 1): > 200 µM
